The subject of one assay is Trichophyton mentagr. Put plainly: Antimycotic in-vitro activity, serial dilution test (MIC). Format: cell-based, Trichophyton mentagrophytes. Particulars: Sabouraud's milieu d'epreuve, 20°C, 96 h, inoculum 5 x 10^4 Keime/ml, read-out: MHK-Werte in γ/ml Nährmedium Trichophyton mentagr. As to the method: (§1) Versuchsbeschreibung: • Die in-vitro-Prüfungen wurden im Reihenverdünnungstest mit Keiminokula von durchschnittlich 5 x 10^4 Keimen/ml Substrat durchgeführt. Als Nährmedium dienten • a) für Dermatophyten und Schimmelpilze: Sabouraud's milieu d'epreuve • b) für Hefen: • Fleischextrakt-Traubenzucker-Bouillon.
(§2) Die Bebrütungstemperatur betrug 20°C, die Bebrütungsdauer lag bei 24 bis 96 Stunden bei Hefen und 96 Stunden bei Dermatophyten und Schimmelpilzen.

A further assay has as its system Torulopsis glabrata. The description is as above. The format is cell-based. Particulars: Nakaseomyces glabratus; Fleischextrakt-Traubenzucker-Bouillon, 20°C, 24 to 96 h, inoculum 5 x 10^4 Keime/ml; read-out: MHK-Werte in γ/ml Nährmedium Torulopsis glabrata. How it is done: as §1, §2
The subject of the next assay is Aspergillus fumigatus. The description is as above. Format: cell-based. As to conditions: Sabouraud's milieu d'epreuve, 20°C, 96 h, inoculum 5 x 10^4 Keime/ml, read-out: MHK-Werte in γ/ml Nährmedium Aspergillus fumigatus. How it is done: as §1, §2
A further assay concerns Microsporum canis. Described as above. As to conditions: Sabouraud's milieu d'epreuve, 20°C, 96 h, inoculum 5 x 10^4 Keime/ml, read-out: MHK-Werte in γ/ml Nährmedium Microsporum canis. Format: cell-based. How it is done:
as §1, §2

A further assay concerns Candida albicans. Described as above. Format: cell-based. As to conditions: Fleischextrakt-Traubenzucker-Bouillon, 20°C, 24 to 96 h, inoculum 5 x 10^4 Keime/ml, read-out: MHK-Werte in γ/ml Nährmedium Candida albicans. As to the method: as §1, §2
A further assay has as its system Candida-Zellen. Put plainly: Antimycotic in-vivo activity (oral) in mouse candidosis. Also on record: species or system Mäuse vom Typ SPF-CF1; key to Wirkung: +++++: sehr gute Wirkung = 90 % Überlebende am 6.Tag p.i.; ++++: gute Wirkung = 80 % Überlebende am 6.Tag p.i.; +++: Wirkung = 60 % Überlebende am 6.Tag p.i.; ++: schwache Wirkung = 40 % Überlebende am 6.Tag p.i.; +: Spur Wirkung = unter 40 % Überlebende am 6.Tag p.i.; k.W.: keine Wirkung. As to conditions: for Wirkung: mice infected i.v. with Candida, oral 50 - 100 mg/kg one hour before and seven hours after infection, survivors on day 6 p.i. How it is done:
Mäuse vom Typ SPF-CF1 wurden intravenös mit 1 - 2 x 10^6 logarithmisch wachsenden Candida-Zellen, die in physiologischer Kochsalzlösung suspendiert werden, infiziert. Eine Stunde vor und sieben Sunden nach der Infektion werden die Tiere mit jeweils 50 - 100 mg/kg Körpergewicht der Präparate oral behandelt.
Unbehandelte Tiere starben 3 bis 6 Tage post infektionem. Die Überlebensrate am 6. Tag post infektionem betrug bei unbehandelten Kontrolltieren etwa 5 %.
+++++ = sehr gute Wirkung = 90 % Überlebende am 6.Tag p.i. ++++ = gute Wirkung = 80 % Überlebende am 6.Tag p.i. +++ = Wirkung = 60 % Überlebende am 6.Tag p.i. ++ = schwache Wirkung = 40 % Überlebende am 6.Tag p.i. + = Spur Wirkung = unter 40 % Überlebende am 6.Tag p.i. k.W. = keine Wirkung

In brackets after ≈: the same amount, converted by molar mass. Where only a bound is given, the exact number is not on record here.

Consider `CC(C)(C)C(O)(COc1ccc(Cl)cc1)Cn1ccnc1` (stereo not shown) [(A), reference compound], for which the MIC in the assay with Trichophyton mentagr. is 8 µg/mL (≈ 25.9 µM); in the assay with Torulopsis glabrata, 2 µg/mL (≈ 6.48 µM); in the assay with Aspergillus fumigatus it was 32 µg/mL (≈ 104 µM); with Microsporum canis, 16 µg/mL (≈ 51.8 µM); in the assay on Candida albicans, less than 1 µg/mL. Also, the Wirkung entry with Candida-Zellen is given as “k.W”.
For the molecule `Cc1ccccc1OCC(O)(Cn1ccnc1)C(C)(C)C` (stereo not shown) [(C), reference compound], the MIC with Trichophyton mentagr. is 32 µg/mL (≈ 111 µM); in the assay on Torulopsis glabrata, more than 64 µg/mL; with Aspergillus fumigatus, more than 64 µg/mL; with Candida albicans it was 32 µg/mL (≈ 111 µM). Further, the Wirkung result in the assay with Candida-Zellen is “k.W”.
Turning to `COCC(C)(C)C(O)(COc1ccc(Cl)cc1)Cn1cncn1` (stereo not shown) [Beispiel 2], the MIC in the assay on Trichophyton mentagr. was 2 µg/mL (≈ 5.89 µM); with Torulopsis glabrata, 8 µg/mL (≈ 23.5 µM); in the assay with Aspergillus fumigatus it was 8 µg/mL (≈ 23.5 µM); in the assay with Microsporum canis, 4 µg/mL (≈ 11.8 µM); in the assay with Candida albicans, less than 1 µg/mL.
`Cc1ccc(OCC(O)(Cn2cncn2)C(C)(C)CF)cc1` (stereo not shown) [Beispiel 6]: the MIC is 2 µg/mL (≈ 6.51 µM) with Trichophyton mentagr.; 4 µg/mL (≈ 13 µM) in the assay with Torulopsis glabrata; 2 µg/mL (≈ 6.51 µM) with Aspergillus fumigatus; 4 µg/mL (≈ 13 µM) in the assay on Microsporum canis; less than 1 µg/mL in the assay on Candida albicans.
`CC(C)(CF)C(O)(CSc1ccccc1Cl)Cn1cncn1` (stereo not shown) [Beispiel 11]: the MIC in the assay with Trichophyton mentagr. is 2 µg/mL (≈ 5.82 µM); with Torulopsis glabrata, 16 µg/mL (≈ 46.5 µM); in the assay with Aspergillus fumigatus, 8 µg/mL (≈ 23.3 µM); in the assay on Microsporum canis, 4 µg/mL (≈ 11.6 µM); with Candida albicans, less than 1 µg/mL.
For `COCC(C)(C)C(O)(COc1ccc(Cl)cc1Cl)Cn1cncn1` (stereo not shown) [Beispiel 16], in that order: less than 1 µg/mL, 2 µg/mL (≈ 5.34 µM), 8 µg/mL (≈ 21.4 µM), 2 µg/mL (≈ 5.34 µM) and less than 1 µg/mL.
In the case of `COCC(C)(C)C(O)(COc1ccc(Cl)cc1C)Cn1cncn1` (stereo not shown) [Beispiel 17], the MIC with Trichophyton mentagr. is less than 1 µg/mL; with Torulopsis glabrata, 4 µg/mL (≈ 11.3 µM); in the assay with Aspergillus fumigatus it was 4 µg/mL (≈ 11.3 µM); in the assay on Microsporum canis it was less than 1 µg/mL; with Candida albicans it was less than 1 µg/mL.
On to `CCOCC(C)(C)C(O)(COc1ccc(Cl)cc1)Cn1cncn1` (stereo not shown) [Beispiel 18], for which the MIC was less than 1 µg/mL in the assay with Trichophyton mentagr.; 4 µg/mL (≈ 11.3 µM) with Torulopsis glabrata; 4 µg/mL (≈ 11.3 µM) in the assay with Aspergillus fumigatus; 4 µg/mL (≈ 11.3 µM) in the assay on Microsporum canis; less than 1 µg/mL with Candida albicans.
As to `CC(C)(COc1ccc(Cl)cc1)C(O)(COc1ccc(Cl)cc1)Cn1cncn1` (stereo not shown) [Beispiel 19], the MIC with Trichophyton mentagr. was less than 1 µg/mL; with Torulopsis glabrata it was 2 µg/mL (≈ 4.58 µM); with Aspergillus fumigatus, less than 1 µg/mL; in the assay on Microsporum canis it was 2 µg/mL (≈ 4.58 µM); in the assay with Candida albicans, 8 µg/mL (≈ 18.3 µM).
In the case of `COCC(C)(C)C(O)(COc1ccc(F)cc1)Cn1cncn1` (stereo not shown) [Beispiel 20], the MIC is 2 µg/mL (≈ 6.18 µM) in the assay on Trichophyton mentagr.; 2 µg/mL (≈ 6.18 µM) in the assay on Torulopsis glabrata; 32 µg/mL (≈ 99 µM) in the assay on Aspergillus fumigatus; 8 µg/mL (≈ 24.7 µM) in the assay on Microsporum canis; less than 1 µg/mL in the assay on Candida albicans.
For the molecule `CC(C)(COc1ccc(Cl)cc1)C(O)(CCc1ccc(Cl)cc1)Cn1cncn1` (stereo not shown) [Beispiel 29], the MIC in the assay on Trichophyton mentagr. was less than 1 µg/mL; in the assay with Torulopsis glabrata, 2 µg/mL (≈ 4.6 µM); with Aspergillus fumigatus, less than 1 µg/mL; with Microsporum canis it was 2 µg/mL (≈ 4.6 µM); in the assay on Candida albicans, 16 µg/mL (≈ 36.8 µM).
`CC(C)(Oc1ccc(Cl)cc1Cl)C(O)(CCc1ccc(Cl)cc1)Cn1cncn1` (stereo not shown) [Beispiel 30]: the MIC in the assay on Trichophyton mentagr. is less than 1 µg/mL; in the assay with Torulopsis glabrata, 8 µg/mL (≈ 17.6 µM); with Aspergillus fumigatus it was 4 µg/mL (≈ 8.8 µM); with Microsporum canis, 64 µg/mL (≈ 141 µM); in the assay on Candida albicans it was 16 µg/mL (≈ 35.2 µM).
For `CC(C)(Oc1ccc(Cl)cc1)C(O)(CCc1ccc(Cl)cc1)Cn1ccnc1` (stereo not shown) [Beispiel 34] the same measures were less than 1 µg/mL, less than 1 µg/mL, less than 1 µg/mL, less than 1 µg/mL and less than 1 µg/mL.
For the molecule `CC(C)(COc1ccc(Cl)cc1Cl)C(O)(CCc1ccc(Cl)cc1)Cn1ccnc1` (stereo not shown) [Beispiel 35], the MIC is less than 1 µg/mL in the assay on Trichophyton mentagr.; less than 1 µg/mL in the assay on Torulopsis glabrata; less than 1 µg/mL in the assay with Aspergillus fumigatus; less than 1 µg/mL in the assay with Microsporum canis; 4 µg/mL (≈ 8.55 µM) in the assay on Candida albicans.
For the molecule `C=CC(C)(C)C(O)(COc1ccc(F)cc1)Cn1ccnc1` (stereo not shown) [Beispiel 40], the Wirkung entry in the assay on Candida-Zellen is recorded as “++ (schwache Wirkung = 40 % Überlebende am 6.Tag p.i.)”. In the assay with Candida-Zellen (mouse candidosis, oral 50 - 100 mg/kg), the “Wirkung compared with known compounds (A), (B), (C) and (D)” value was “bessere Wirkung”.

The values above are taken from patent publication EP0085842A1, “Antimycosic agents” (BAYER AG, priority 1982, dated 1983).
